Residues, ends and D or L forms follow the SMILES beside them. *: point of attachment. X51 = O=C(O)[C@@H](CC(=O)*)SCc1ccc([N+](=O)[O-])cc1; X32 = O=C(O)[C@H](CC(=O)*)SCc1ccc(C(F)(F)F)cc1; X17 = O=C(O)[C@@H](CC(=O)*)Sc1cc(Cl)cc(Cl)c1; X74 = O=C(O)[C@@H](CC(=O)*)SCc1ccc(Cl)cc1Cl; X3 = O=C(O)[C@H](CC(=O)*)Sc1ccc(Cl)c(Cl)c1; X55 = O=C(O)[C@@H](CC(=O)*)Sc1ccc(Cl)cc1Cl; X58 = O=C(O)[C@@H](CC(=O)*)Sc1cccc(Cl)c1Cl; X31 = O=C(O)[C@H](CC(=O)*)Sc1cccc(Cl)c1Cl; X64 = O=C(O)[C@H](CC(=O)*)Sc1c(Cl)cccc1Cl; X33 = Cc1ccc(S[C@@H](CC(=O)*)C(=O)O)cc1C; X61 = O=C(O)[C@@H](CC(=O)*)Sc1cccc(Cl)c1; X47 = O=C(O)[C@@H](CC(=O)*)SCc1ccccc1Cl; X70 = O=C(O)[C@H](CC(=O)*)Sc1cccc(Cl)c1; X26 = O=C(O)[C@@H](CC(=O)*)SCCc1ccccc1; X34 = O=C(O)[C@@H](CC(=O)*)Sc1ccccc1Cl; X37 = O=C(O)[C@H](CC(=O)*)SCCCc1ccccc1; X54 = O=C(O)[C@H](CC(=O)*)SCCc1ccccc1; X21 = O=C(O)[C@@H](CC(=O)*)SC1CCCCC1; X40 = O=C(O)[C@H](CC(=O)*)SCc1ccccc1; X44 = CC(CC(=O)*)Sc1ccc2ccccc2c1; Bz = O=C(c1ccccc1)*
Target: NAD-dependent protein deacylase sirtuin-5, mitochondrial (Homo sapiens, UniProt Q9NXA8)
Assay: Inhibition of human recombinant N-terminal Strep2-tagged SIRT5 expressed in Escherichia coli BL21 (DE3) using Abz-GVLK(glutaryl)AY(NO2)GV-NH2 as substrate in presence of NAD+ by fluorescence assay

Chain of NAD-dependent protein deacylase sirtuin-5, mitochondrial (Q9NXA8 whole entry): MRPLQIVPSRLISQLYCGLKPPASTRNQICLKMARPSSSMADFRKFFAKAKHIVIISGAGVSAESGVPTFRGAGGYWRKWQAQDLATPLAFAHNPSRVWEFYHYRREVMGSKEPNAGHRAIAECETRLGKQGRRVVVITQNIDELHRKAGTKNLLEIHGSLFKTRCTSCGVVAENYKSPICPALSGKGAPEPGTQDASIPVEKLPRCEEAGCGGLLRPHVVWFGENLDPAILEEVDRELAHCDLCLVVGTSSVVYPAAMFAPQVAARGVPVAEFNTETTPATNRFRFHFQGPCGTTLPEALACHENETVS

**Q.** For `CC(C)C[C@H](NC(=O)[C@@H](NC(=O)CNC(=O)c1ccccc1)C(C)C)C(=O)N[C@@H](CCCCNC(=O)C[C@@H](Sc1cc(Cl)cc(Cl)c1)C(=O)O)C(=O)N[C@@H](CCC(=O)O)C(=O)N[C@@H](Cc1ccc(O)cc1)C(=O)NCC(=O)N[C@H](C(N)=O)C(C)C` (Bz-GVLK(X17)EYGV-NH2), which IC50 is on record?
**A.** 647 nM

**Q.** Which IC50 does the source give for `CC(C)C[C@H](NC(=O)[C@@H](NC(=O)CNC(=O)c1ccccc1)C(C)C)C(=O)N[C@@H](CCCCNC(=O)C[C@@H](SCc1ccc([N+](=O)[O-])cc1)C(=O)O)C(=O)N[C@@H](CCC(=O)O)C(=O)N[C@@H](Cc1ccc(O)cc1)C(=O)NCC(=O)N[C@H](C(N)=O)C(C)C` (Bz-GVLK(X51)EYGV-NH2) here?
**A.** 4030 nM

**Q.** `CC(=O)N[C@@H](CC(C)C)C(=O)N[C@@H](CCCCNC(=O)CC(Sc1ccc2ccccc2c1)C(=O)O)C(=O)N[C@@H](C)C(N)=O` (some centres not stated) was tested. Which IC50 did it give?
**A.** 1080 nM

**Q.** How did the IC50 turn out when `O=C(C[C@H](Sc1ccc2ccccc2c1)C(=O)O)NCc1ccccc1` was run?
**A.** 124000 nM

**Q.** With `CC(C)C[C@H](NC(=O)[C@@H](NC(=O)CNC(=O)c1ccccc1)C(C)C)C(=O)N[C@@H](CCCCNC(=O)C[C@H](Sc1cccc(Cl)c1)C(=O)O)C(=O)N[C@@H](CCC(=O)O)C(=O)N[C@@H](Cc1ccc(O)cc1)C(=O)NCC(=O)N[C@H](C(N)=O)C(C)C` (Bz-GVLK(X70)EYGV-NH2) as the compound, how does the IC50 read?
**A.** 120 nM

**Q.** `CC(C)C[C@H](NC(=O)[C@@H](NC(=O)CNC(=O)c1ccccc1)C(C)C)C(=O)N[C@@H](CCCCNC(=O)CC(C)Sc1ccc2ccccc2c1)C(=O)N[C@@H](CCC(=O)O)C(=O)N[C@@H](Cc1ccc(O)cc1)C(=O)NCC(=O)N[C@H](C(N)=O)C(C)C` (some centres not stated) (Bz-GVLK(X44)EYGV-NH2) was tested. Which IC50 did it give?
**A.** > 40000 nM

**Q.** With `CC(C)C[C@H](NC(=O)[C@@H](NC(=O)CNC(=O)c1ccccc1)C(C)C)C(=O)N[C@@H](CCCCNC(=O)C[C@@H](Sc1ccccc1Cl)C(=O)O)C(=O)N[C@@H](CCC(=O)O)C(=O)N[C@@H](Cc1ccc(O)cc1)C(=O)NCC(=O)N[C@H](C(N)=O)C(C)C` (Bz-GVLK(X34)EYGV-NH2) as the compound, how does the IC50 read?
**A.** 3100 nM

**Q.** How did the IC50 turn out when `CC(C)C[C@H](NC(=O)[C@@H](NC(=O)CNC(=O)c1ccccc1)C(C)C)C(=O)N[C@@H](CCCCNC(=O)C[C@H](SCc1ccc(C(F)(F)F)cc1)C(=O)O)C(=O)N[C@@H](CCC(=O)O)C(=O)N[C@@H](Cc1ccc(O)cc1)C(=O)NCC(=O)N[C@H](C(N)=O)C(C)C` (Bz-GVLK(X32)EYGV-NH2) was run?
**A.** 803 nM

**Q.** Which IC50 does the source give for `CC(C)C[C@H](NC(=O)[C@@H](NC(=O)CNC(=O)c1ccccc1)C(C)C)C(=O)N[C@@H](CCCCNC(=O)C[C@H](SCCc1ccccc1)C(=O)O)C(=O)N[C@@H](CCC(=O)O)C(=O)N[C@@H](Cc1ccc(O)cc1)C(=O)NCC(=O)N[C@H](C(N)=O)C(C)C` (Bz-GVLK(X54)EYGV-NH2) here?
**A.** 2740 nM

**Q.** For `Cc1ccc(S[C@@H](CC(=O)NCCCC[C@H](NC(=O)[C@H](CC(C)C)NC(=O)[C@@H](NC(=O)CNC(=O)c2ccccc2)C(C)C)C(=O)N[C@@H](CCC(=O)O)C(=O)N[C@@H](Cc2ccc(O)cc2)C(=O)NCC(=O)N[C@H](C(N)=O)C(C)C)C(=O)O)cc1C` (Bz-GVLK(X33)EYGV-NH2), which IC50 is on record?
**A.** 46.1 nM

**Q.** With `CNC(=O)c1cccc(NC(=O)C[C@H](Sc2ccc3ccccc3c2)C(=O)O)c1` as the compound, how does the IC50 read?
**A.** 90000 nM

**Q.** With `CC(C)C[C@H](NC(=O)[C@@H](NC(=O)CNC(=O)c1ccccc1)C(C)C)C(=O)N[C@@H](CCCCNC(=O)C[C@@H](SC1CCCCC1)C(=O)O)C(=O)N[C@@H](CCC(=O)O)C(=O)N[C@@H](Cc1ccc(O)cc1)C(=O)NCC(=O)N[C@H](C(N)=O)C(C)C` (Bz-GVLK(X21)EYGV-NH2) as the compound, how does the IC50 read?
**A.** > 14000 nM

**Q.** With `O=C(C[C@H](Sc1ccc2ccccc2c1)C(=O)O)Nc1ccccc1` as the compound, how does the IC50 read?
**A.** 157000 nM

**Q.** For `O=C(C[C@H](Sc1ccc2ccccc2c1)C(=O)O)NCCCc1ccccc1`, which IC50 is on record?
**A.** 72600 nM

**Q.** With `CC(C)C[C@H](NC(=O)[C@@H](NC(=O)CNC(=O)c1ccccc1)C(C)C)C(=O)N[C@@H](CCCCNC(=O)C[C@@H](Sc1cccc(Cl)c1Cl)C(=O)O)C(=O)N[C@@H](CCC(=O)O)C(=O)N[C@@H](Cc1ccc(O)cc1)C(=O)NCC(=O)N[C@H](C(N)=O)C(C)C` (Bz-GVLK(X58)EYGV-NH2) as the compound, how does the IC50 read?
**A.** 3390 nM

**Q.** Which IC50 does the source give for `CC(C)C[C@H](NC(=O)[C@@H](NC(=O)CNC(=O)c1ccccc1)C(C)C)C(=O)N[C@@H](CCCCNC(=O)C[C@H](Sc1cccc(Cl)c1Cl)C(=O)O)C(=O)N[C@@H](CCC(=O)O)C(=O)N[C@@H](Cc1ccc(O)cc1)C(=O)NCC(=O)N[C@H](C(N)=O)C(C)C` (Bz-GVLK(X31)EYGV-NH2) here?
**A.** 715 nM

**Q.** For `CC(C)C[C@H](NC(=O)[C@@H](NC(=O)CNC(=O)c1ccccc1)C(C)C)C(=O)N[C@@H](CCCCNC(=O)C[C@H](Sc1c(Cl)cccc1Cl)C(=O)O)C(=O)N[C@@H](CCC(=O)O)C(=O)N[C@@H](Cc1ccc(O)cc1)C(=O)NCC(=O)N[C@H](C(N)=O)C(C)C` (Bz-GVLK(X64)EYGV-NH2), which IC50 is on record?
**A.** 577 nM

**Q.** With `CC(C)C[C@H](NC(=O)[C@@H](NC(=O)CNC(=O)c1ccccc1)C(C)C)C(=O)N[C@@H](CCCCNC(=O)C[C@@H](Sc1cccc(Cl)c1)C(=O)O)C(=O)N[C@@H](CCC(=O)O)C(=O)N[C@@H](Cc1ccc(O)cc1)C(=O)NCC(=O)N[C@H](C(N)=O)C(C)C` (Bz-GVLK(X61)EYGV-NH2) as the compound, how does the IC50 read?
**A.** 1380 nM

**Q.** For `CC(C)C[C@H](NC(=O)[C@@H](NC(=O)CNC(=O)c1ccccc1)C(C)C)C(=O)N[C@@H](CCCCNC(=O)C[C@@H](SCc1ccccc1Cl)C(=O)O)C(=O)N[C@@H](CCC(=O)O)C(=O)N[C@@H](Cc1ccc(O)cc1)C(=O)NCC(=O)N[C@H](C(N)=O)C(C)C` (Bz-GVLK(X47)EYGV-NH2), which IC50 is on record?
**A.** 352 nM

**Q.** `CC(C)C[C@H](NC(=O)[C@@H](NC(=O)CNC(=O)c1ccccc1)C(C)C)C(=O)N[C@@H](CCCCNC(=O)C[C@@H](SCc1ccc(Cl)cc1Cl)C(=O)O)C(=O)N[C@@H](CCC(=O)O)C(=O)N[C@@H](Cc1ccc(O)cc1)C(=O)NCC(=O)N[C@H](C(N)=O)C(C)C` (Bz-GVLK(X74)EYGV-NH2) was tested. Which IC50 did it give?
**A.** 432 nM

**Q.** With `CC(C)C[C@H](NC(=O)[C@@H](NC(=O)CNC(=O)c1ccccc1)C(C)C)C(=O)N[C@@H](CCCCNC(=O)C[C@H](SCc1ccccc1)C(=O)O)C(=O)N[C@@H](CCC(=O)O)C(=O)N[C@@H](Cc1ccc(O)cc1)C(=O)NCC(=O)N[C@H](C(N)=O)C(C)C` (Bz-GVLK(X40)EYGV-NH2) as the compound, how does the IC50 read?
**A.** 336 nM

**Q.** How did the IC50 turn out when `CC(C)C[C@H](NC(=O)[C@@H](NC(=O)CNC(=O)c1ccccc1)C(C)C)C(=O)N[C@@H](CCCCNC(=O)C[C@H](Sc1ccc(Cl)c(Cl)c1)C(=O)O)C(=O)N[C@@H](CCC(=O)O)C(=O)N[C@@H](Cc1ccc(O)cc1)C(=O)NCC(=O)N[C@H](C(N)=O)C(C)C` (Bz-GVLK(X3)EYGV-NH2) was run?
**A.** 45.9 nM

**Q.** What about the Ki of the same compound?
**A.** 23 nM

**Q.** How did the IC50 turn out when `CC(C)C[C@H](NC(=O)[C@@H](NC(=O)CNC(=O)c1ccccc1)C(C)C)C(=O)N[C@@H](CCCCNC(=O)C[C@H](SCCCc1ccccc1)C(=O)O)C(=O)N[C@@H](CCC(=O)O)C(=O)N[C@@H](Cc1ccc(O)cc1)C(=O)NCC(=O)N[C@H](C(N)=O)C(C)C` (Bz-GVLK(X37)EYGV-NH2) was run?
**A.** 1130 nM

**Q.** `C=CCN1C(=O)/C(=C/c2ccc(-c3cccc(Cl)c3Cl)o2)C(=O)NC1=S` was tested. Which IC50 did it give?
**A.** 25200 nM

**Q.** How did the IC50 turn out when `CC(C)C[C@H](NC(=O)[C@@H](NC(=O)CNC(=O)c1ccccc1)C(C)C)C(=O)N[C@@H](CCCCNC(=O)C[C@@H](SCCc1ccccc1)C(=O)O)C(=O)N[C@@H](CCC(=O)O)C(=O)N[C@@H](Cc1ccc(O)cc1)C(=O)NCC(=O)N[C@H](C(N)=O)C(C)C` (Bz-GVLK(X26)EYGV-NH2) was run?
**A.** 592 nM

**Q.** With `CC(C)C[C@H](NC(=O)[C@@H](NC(=O)CNC(=O)c1ccccc1)C(C)C)C(=O)N[C@@H](CCCCNC(=O)C[C@@H](Sc1ccc(Cl)cc1Cl)C(=O)O)C(=O)N[C@@H](CCC(=O)O)C(=O)N[C@@H](Cc1ccc(O)cc1)C(=O)NCC(=O)N[C@H](C(N)=O)C(C)C` (Bz-GVLK(X55)EYGV-NH2) as the compound, how does the IC50 read?
**A.** 2010 nM

Source: ChEMBL document CHEMBL4033793, “Potent and Selective Inhibitors of Human Sirtuin 5” (J Med Chem, 2018)
